Consider one compound from patent US8173360B2, “Cell death inhibitor” (Takeda Pharmaceutical Company Limited, priority 2002, dated 2012).

The subject of assay [1] is primary cardiomyocytes derived from rat neonates. As to the kind of experiment: Inhibitory activity against myocardial cell death induced by doxorubicin. Type of assay: cell-based. Conditions: doxorubicin 200 μM, 18 hours; sample added 3 hours before. Here is the method:
Medium 199 and a sample to be tested were added thereto, followed by incubation for 3 hours. After the incubation, doxorubicin (DOX: final concentration of 200 μM) was added to the mixture, which was incubated for further 18 hours to induce cell death. Subsequently, fetal cow serum was added thereto to reach 10%. […] Thus, the myocardial cell death inhibitory activity was examined.

The test system of assay [2] is Normal human umbilical vein endothelial cells. As to the kind of experiment: Inhibitory activity against serum depletion-induced cell death of vascular smooth muscle. Type of assay: cell-based. Conditions: serum-free MCDB131 medium, 3 days, WST-8. (Tetrazolium assays rely on reduction of a dye to a coloured formazan, in cell work by metabolically active cells.)
For assay [3], the system named is Human normal articular chondrocytes. As to the kind of experiment: Inhibitory activity against cell death of human articular chondrocytes induced by NO (MTT). The format is cell-based. Conditions: for Cell Death Inhibition Rate: 1.5 mM sodium nitroprusside 5 hours, mean ±SD. Here is the method: Human normal articular chondrocytes (Clonetics, Inc.) were proliferated in a growth medium for articular chondrocytes (CGM, Clonetics, Inc.) in monolayer culture. Then, the cells were suspended in 1.2% alginate-containing 155 mM NaCl solution in a density of 2.0×10^6 cells/ml, and beads having a 2 mm diameter were prepared using a syringe with a 22 gauge needle. The beads were incubated in a differentiation medium for articular chondrocytes (CDM, Clonetics, Inc.) charged in a 96-well round-bottomed plate (1 bead/well, manufactured by FALCON) for further 7 days. The medium was replaced by α-modified minimum essential medium containing Compound 1 (0.1 μM or 1 μM) and 10% fetal cow serum, followed by incubation for 48 hours and then for 5 hours in the co-presence of 1.5 mM sodium nitroprusside (NO generator, manufactured by Sigma). As control drugs, caspase 3 inhibitor (Z-DEVD-FMK (SEQ ID NO: 5), 100 μM, manufactured by R & D Systems, Inc.) and caspase 9 inhibitor (Z-LEHD-FMK (SEQ ID NO: 6), 100 μM, manufactured by R & D Systems, Inc.) were similarly monitored for their activities. After completion of the experiment, alginate was removed and the cell survival rate was determined by the MTT technique.
In the table, the numerical values indicate mean values (±SD) of the cell death inhibition rates as converted from the measurement data by the MTT technique. The cell survival rate after the addition of 1.5 mM sodium nitroprusside (without addition of either Compound 1 or control drug) was 31.9%.

The subject of assay [4] is genes under control of Antioxidant response element (ARE). As to the kind of experiment: Gene expression analysis by DNA chip. Type of assay: cell-based, rat. To be noted: for Increasing Rate of Expression: 21 hours, without compound = 1. The procedure: After gently stiffing, the plate was washed 3 times with Medium 199 medium to remove serum. […] The medium was then removed and total RNA was recovered using RNeasy Mini Kit (manufactured by QIAGEN). Using the total RNA, exhaustive analysis of gene expression was performed on GeneChip arrays for expression analysis (Rat Genome U34A Arrays: manufactured by AFFYMETRIX). The increasing rate of expression of each gene was expressed in terms of the expression level with the addition of the compound, when the expression level without addition of any compound was made 1.

The next assay concerns heme oxygenase-1. The experiment in a line: Heme oxygenase-1 production-increasing activity (western blotting). The format is cell-based, rat. To be noted: for Increasing Rate of Production (heme oxygenase-1): 24 hours, without compound = 1. The procedure:
The plate was washed 3 times with Medium 199 medium to remove serum. Compound I was added to the plate, followed by incubation for 24 hours at 37° C. and 5% CO2. After completion of the incubation, the cardiomyocytes were washed once with PBS(−), and 100 μl of cell lysis buffer [10 mM Tris(hydroxymethyl)aminomethane, pH 7.4, 150 mM NaCl, 1 mM EDTA.2Na, 1 mM ethylene glycol-bis(β-aminoethylether]-N,N,N′,N′-tetraacetic acid, 0.5 mM (p-aminophenyl)methanesulfonyl fluoride hydrochloride, 200 μM sodium β-glycerophosphate n-hydrate, 20 mM NaF, 2 mM sodium diphosphate decahydrate, 10 μg/ml aprotinin, 10 μg/ml leupeptin, 1% Triton X-100, 0.5% Nonidet P40, 0.1% sodium dodesyl sulfate) was added thereto. After the cell debris was scraped from the plate using a cell scraper, the cell lysis buffer was recovered. The recovered cell lysis buffer was mixed with a sample buffer (Tris-SDS-ME Sample Buffer; manufactured by Daiichi Pure Chemicals Co., Ltd.) in an equal volume. The mixture was heat-treated at 95° C. for 5 minutes, followed by SDS polyacrylamide electrophoresis using Multigel (manufactured by Daiichi Pure Chemicals Co., Ltd.). Next, nitrocellulose membrane (Hybond-ECL; manufactured by Amersham Pharmacia Biotech) soaked in a blotting buffer [0.1 M Tris(hydroxymethyl)aminomethane, 0.192 M glycine, 20% ethanol] for at least 10 minutes, blotting filter paper, dialysis membrane and gel were set on Horize-Blot (manufactured by ATTO, Co.) and treated with 100 mA/gel (64 cm^2) for an hour to adsorb the protein in the gel onto the nitrocellulose membrane. Thereafter, the nitrocellulose membrane was soaked in a blocking buffer [TTBS buffer (20 mM Tris-HCl, pH 7.6, 0.137 M NaCl, 0.1% Tween-20) containing 5% skimmed milk powders] and stirred at room temperature for an hour for blocking. […] After completion of the reaction, the membrane was washed 3 times with TTBS buffer and the amount of protein was determined using a western blotting detection reagent (ECL+Plus; manufactured by Amersham) and Hyperfilm ECL (manufactured by Amersham). […]
In general terms: A western blot detects proteins with antibodies after separation by electrophoresis.

Turning to `O=c1nc(-c2ccccn2)sc2ccccc12` [Compound 1, 2-(2-Pyridyl)-4H-1,3-benzothiazin-4-one], the “inhibition of myocardial cell death induced by doxorubicin” value in assay [1] was “exhibits the activity of inhibiting myocardial cell death induced by doxorubicin”. The “inhibition of cell death induced by serum depletion” value in assay [2] is on record as “exhibits the activity of inhibiting vascular smooth muscle cell death induced by serum depletion”. In addition, the “Cell Death Inhibition Rate” value in assay [3] (0.1 μM) is recorded as 44.7 ± 0.9; in assay [3] (1 μM), 57.6 ± 7.0. Besides, in assay [3] (statement in words), the “inhibitory activity against cell death of human articular chondrocytes induced by NO” value was “has the inhibitory activity against the cell death of human articular chondrocytes induced by NO”. The “Increasing Rate of Expression” value amounted to 5.2 in assay [4] (Bilirunin-specific UDP-glucuronosyltransferase); 2.4 in assay [4] (Gamma-glutamylcysteine synthetase); 2.5 in assay [4] (Glutathione S-transferase Yb subunit); 2.1 in assay [4] (Glutathione S-transferase Yc1 subunit); 2.0 in assay [4] (Heme oxygenase-1); 11.6 in assay [4] (Liver glutathione S-transferase Ya subunit). In addition, the “Increasing Rate of Expression” value in assay [4] (Liver glutathione S-transferase Yc subunit) is reported as 2.3; in assay [4] (NAD(P)H-menadione oxidereductase), 2.8; in assay [4] (NAD(P)H: quinone reductase), 9.4; in assay [4] (UDP-glucuronosyltransferase, exon 1) it was 5.0. Moreover, the “expression of the genes under control of Antioxidant response element (ARE)” value in assay [4] (statement in words) is reported as “enhances expression of the genes under control of Antioxidant response element (ARE)”. Further, the “Increasing Rate of Production (heme oxygenase-1)” value is 1.6 in the assay with heme oxygenase-1 (0.04 μM) and 2.5 with heme oxygenase-1 (0.4 μM). For the same compound, the “production amount of heme oxygenase-1” value with heme oxygenase-1 (statement in words) was “increases the production amount of heme oxygenase-1”.
